The results in this text go back to patent US10921397B2, “Hyperpolarized micro-NMR system and methods” (Memorial Sloan Kettering Cancer Center, priority 2016, dated 2021).

One assay concerns LDH-A. The assay is described as follows: Western blot of LDH-A phosphorylation in K562 cells after treatment. It is filed as cell-based. Conditions: imatinib treatment, 24 hours. From the text:
Imatinib was purchased from Cayman Chemical.
(In general: Immunoblotting shows a protein as a band on a membrane.)

In assay [1] the test system is K562 cells. The assay is described as follows: Lactate concentration (pool size) in cell culture media by conventional high-field NMR spectrometer. It is filed as cell-based. The conditions noted are these: 1 μM imatinib. The procedure: Each lactate signal was acquired by a conventional high-field NMR spectrometer. All measurements were performed in triplicate. Error bars show the standard deviation.

Assay [2] concerns K562 cells. Conditions: 24 hours of drug treatment, concentrations as high as 1 μM.
Method: K562 cells were plated with a concentration of 100,000 cells/mL in 10 mL complete RPMI media. […] Two sets of four flasks (two flasks per each sample) were prepared and stored in an incubator for 24 hours. Cell number and viability were checked after 24 hours, and cells were washed with complete RPMI media once and prepared for hyperpolarization experiments.
The cell number and the viability were measured using CELLOMETER Mini cell counter (Nexcelom Bioscience); the cell suspension was mixed at 1:1 ratio with the trypan blue solution before the measurement. For each measurement, the cell suspension was diluted to make its concentration within a range of 0.8-2×10^6/mL.

For the compound `Cc1ccc(NC(=O)c2ccc(CN3CCN(C)CC3)cc2)cc1Nc1nccc(-c2cccnc2)n1` [imatinib, Imatinib], in the assay with LDH-A, the “phosphorylation of LDH-A” value is listed as “decreased phosphorylation”. The “time required to make a significant change in the lactate pool size” value in the assay on K562 cells [1] is listed as “about 12 hours”. In addition, the cell viability entry with K562 cells [2] is given as “not significantly changed”.
